# Laboratory results from article PMC5869189 (Frontiers in Immunology, 2018).
# Where “and” joins values, the source holds several entries; their conditions need not be identical. Identical values can stand only once.
# Tested on: HLA-DRB1*09
# Format: binding, human
# Design: reference not given here
# Conditions: 24–72 h at 37°C
row,Sequence,"HLA binding, relative HLA binding affinity"
1,AAKIQGMNVEVVVATGYTDR [BPSL2522_P13],42

# Biological target: T1, HLA-DRB1*11:01 (Homo sapiens, UniProt P01903+P01911, A100R/A169T/A87E/I96F/K41T/L162R/M171V/P40S/Q125H/Q178H/Q39Y/Q99D/R42S/S66Y/T262R/V115G/W38E)
# T1 construct: Purified HLA-DR heterodimers derived from the relevant EBV B-lymphoblastoid cell lines; endogenous in cells
# T1 sequence (P01903 26-254, other chains not shown): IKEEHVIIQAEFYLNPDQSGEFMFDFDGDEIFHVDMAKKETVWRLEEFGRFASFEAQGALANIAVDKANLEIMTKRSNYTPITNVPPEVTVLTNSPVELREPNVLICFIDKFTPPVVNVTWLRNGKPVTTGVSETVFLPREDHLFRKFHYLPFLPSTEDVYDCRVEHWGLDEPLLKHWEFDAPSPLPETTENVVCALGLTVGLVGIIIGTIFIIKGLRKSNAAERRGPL
# Format: binding
# Design: reference not given here
# Conditions: 24–72 h at 37°C
row,Sequence,"HLA binding, relative HLA binding affinity"
1,AAKIQGMNVEVVVATGYTDR [BPSL2522_P13],23

# Tested on: HLA-DRB1*07
# Format: binding, human
# Design: reference not given here
# Conditions: 24–72 h at 37°C
row,Sequence,"HLA binding, relative HLA binding affinity"
1,AAKIQGMNVEVVVATGYTDR [BPSL2522_P13],11

# Biological target: T2, HLA-DRB1*15:01 (Homo sapiens, UniProt P01903+P01911)
# T2 construct: Purified HLA-DR heterodimers derived from the relevant EBV B-lymphoblastoid cell lines; endogenous in cells
# Format: binding
# Design: reference not given here
# Conditions: 24–72 h at 37°C
row,Sequence,"HLA binding, relative HLA binding affinity"
1,AAKIQGMNVEVVVATGYTDR [BPSL2522_P13],5

# Tested on: PBMC from healthy, seropositive donors
# Format: cell-based, human
# Conditions: not given
Sequence,% Responders [%],"Elispot, Median SFC/10^6 PBMCs of HLA donors",Median SFC/10^6 PBMCs (IFN-g)
AAKIQGMNVEVVVATGYTDR [BPSL2522_P13],100,362 SFC/10^6 PBMCs and 488 SFC/10^6 PBMCs and 487 SFC/10^6 PBMCs and 578 SFC/10^6 PBMCs and 351 SFC/10^6 PBMCs and 534 SFC/10^6 PBMCs,291
RRGGRPRTERWWALRPVERR [BPSS1599_P18],97.9,,172
DAAAKLERLLPEQGPRAPLA [BPSS1599_P36],89.6,,143
KLNHYSFGDVKGELIDQLGV [BPSL2096_P11],88.2,,320
SVLAQEAPARQHRIDMHGMR [BPSS1531_P31],88.6,,182
ETPVLPLRFEDRGDQVHICI [BPSS0530_P33],86.0,,233
LRIVGDFPDLRFEAWGLRDGKVA [BPSS0530_P44],90.7,,225
LQTSFEPLAMMLRQALARVI [BPSS0530_P31],97.7,,240
FEVESTDPFWKQTLAGSAMA [BPSS0530_P42],83.7,,237
AHNQTLSQNRAQSVVNALAQ [BPSL0999_P16],85.1,,350
KLTMLAHDAMMSAAAQDRSI [BPSS1531_P19],88.6,,226
DPLPPAMLYHELVGLLGRLS [BPSS0530_P27],86.0,,239
RLNALPNPPRQIPYYAQSTY [BPSS0530_P40],81.4,,219
EKLRQLLPQQTKLGAVEQIQ [BPSS0530_P37],83.7,,222
EFVRAIDVPGLRVERIAYQN [BPSS1599_P41],87.5,,135
MSSLPVGPVAWSDGMLIETQ [BPSS0530_P1],93.0,,258
AELAARPEYRELQPYARQQA [BPSS1525_P20],92.3,,216
DNATEAGRAQNRRVEIYLRA [BPSL0999_P20],93.6,,353
FTVVAAKPGFNNHEENGQSA [BPSL2096_P2],88.2,,323
GALVGGVTGYNWQAIKNKLA [BPSL0999_P7],80.9,,322
VGTQEVQKTTVPAQ [BPSL2522_P22],97.1,,270
IQHVSVNNLNVGRSPEEILR [BPSL2096_P15],82.4,,314
WSDGMLIETQHFQQLERHLA [BPSS0530_P2],90.7,,260

Sequence,% Responders [%],"Elispot, Median SFC/10^6 PBMCs of HLA donors",Median SFC/10^6 PBMCs (IFN-g)
VLPGVDEELADRELGYDHDD [BPSS0530_P29],93.0,,234
NNHEENGQSAFETVTEASFP [BPSL2096_P3],91.2,,308
RVRAELAARQARSGPVAPPW [BPSS1599_P24],87.5,,119
VDKQWNLKKLIFAFSAAMPA [BPSS0530_P35],90.7,,243
LFDFDKAVLKPAGKQKLDEL [BPSL2522_P11],85.7,,408
DRGDQVHICIVDKQWNLKKL [BPSS0530_P34],86.0,,299
ATFIVDPDNTIQHVSVNNLN [BPSL2096_P14],91.2,,344
TKLGAVEQIQKLVDLQLPGA [BPSS0530_P38],90.7,,305
AVNDNWVNGTGEWVWMNGTN [BPSL2522_P4],91.4,,368
EAVELAKKLKFDLMVLRIDR [BPSS1599_P4],85.4,,137
AALPDALAFARACAMRFGRL [BPSS1599_P26],89.6,,164
QRFVGGLFWQSLSRRNELRA [BPSS1599_P2],81.3,,137
ETGQLVTRLCWKSQLRSDEV [BPSS0530_P16],81.4,,266
RQTAMSNAQTLASQLVAAGQ [BPSL0280_P14],89.7,,565
GGWNVVIGEPELERQGFQNF [BPSS1599_P15],87.5,,179
AWRREHKDLDKLNHYSFGDV [BPSL2096_P10],88.2,,351
GGERMSDEHASVLAQEAPAR [BPSS1531_P30],91.4,,213
ITNYFTGLQTVANNAADPSA [BPSL0280_P12],82.8,,557
GKGAAIGAGVGALVGGVTGY [BPSL0999_P6],91.5,,357
CLALQAARTGGPEMAFGDVE [BPSS0530_P11],97.7,,256
FSKIGETLGQLFRHRAPDSA [BPSS1525_P5],89.7,,178
PVAPVAPAITSQKITYQADT [BPSL2522_P9],88.6,,353
TAACVVLGGAFAYWHHRAKV [BPSS1599_P21],100.0,,170

Sequence,% Responders [%],"Elispot, Median SFC/10^6 PBMCs of HLA donors",Median SFC/10^6 PBMCs (IFN-g)
RDKEAGVALRATFIVDPDNT [BPSL2096_P13],94.1,,315
DTDGERATLDVPLTAPTAND [BPSS1599_P32],87.5,,148
GDWVGSREEALERLHTDYAW [BPSS1599_P13],95.8,,182
RFIPPLLDTRAHLVLRSLID [BPSS0530_P20],90.7,,248
GRQVYEATLCAIFSEAKDRF [BPSS1525_P12],84.6,,201
RMRLANLDAFDPLPPAMLYH [BPSS0530_P26],88.4,,240
VGLQAGAQSKAIVFLFMTQD [BPSL1445_P12],93.9,,321
SAQSVPASRQAVNDNWVNGT [BPSL2522_P3],88.6,,267
ASPTWRAYRLNANLGGIAPP [BPSS1599_P39],87.5,,143
SALSATDQANATAMVAQINA [BPSL3319_P27],86.7,,259
LLLRQAIAEYRMRLANLDAF [BPSS0530_P25],81.4,,244
ALPIARVAGRNASRTVSLDP [BPSS0530_P18],100.0,,249
AVRDHAFMPNGDWVGSREEA [BPSS1599_P12],97.9,,178
HQASLRLGQTSNHGWGFTLL [BPSS0530_P4],83.7,,239
QGMGASNPIADNATEAGRAQ [BPSL0999_P19],97.9,,375
PATANAKCDGALVAQAPAPA [BPSL2522_P7],82.9,,265
SLRRAQAVKSYLVSKGVPAN [BPSL2522_P16],82.9,,317
ELCWRDAFWTPATANAKCDG [BPSL2522_P6],91.4,,291
DRELGYDHDDLQTSFEPLAM [BPSS0530_P30],88.4,,310
EVPDLAVGLDAPGTPRRLTI [BPSS0530_P14],95.3,,279
NVPSSVTFATDQYAITPAFT [BPSL0999_P11],95.7,,399
AIFSEAKDRFCMDPATRAGN [BPSS1525_P13],92.3,,200

# Biological target: HLA-DRB1*12:02 (Homo sapiens, UniProt P01903+P01911, A100R/A169T/D57E/D86V/F55L/H45Y/I96F/K41T/L162R/M171V/P40S/Q125H/Q178H/Q39Y/Q99D/R42G/S66L/T262R/V114A/V67L/W38E/Y59H/Y61H/Y89S)
# Format: binding
# Design: reference not given here
# Conditions: 24–72 h at 37°C
row,Sequence,"HLA binding, relative HLA binding affinity"
1,AAKIQGMNVEVVVATGYTDR [BPSL2522_P13],5

# Biological target: T3, HLA-DRB1*15:02 (Homo sapiens, UniProt P01903+P01911, V115G)
# T3 construct: Purified HLA-DR heterodimers derived from the relevant EBV B-lymphoblastoid cell lines; endogenous in cells
# T3 sequence (P01903 26-254, other chains not shown): as the sequence (P01903 26-254, other chains not shown) above
# Format: binding
# Design: reference not given here
# Conditions: 24–72 h at 37°C
row,Sequence,"HLA binding, relative HLA binding affinity"
1,AAKIQGMNVEVVVATGYTDR [BPSL2522_P13],667
